Assays:
[1] = target: T1, human transient receptor potential ankyrin 1 (hTRPA1) (Homo sapiens, UniProt O75762); assay: calcium influx (FLIPR Calcium […] plate reader and Fura-2 imaging) in hTRPA1-expressing Flp-In […] cells; blocked by HC-030031; format: cell-based
T1 construct: gene TRPA1; entire coding region (NM_007332.2)

[2] = target: T1, human transient receptor potential ankyrin 1 (hTRPA1); assay: calcium influx (FLIPR Calcium […] plate reader and Fura-2 imaging) in hTRPA1-expressing Flp-In […] cells; blocked by HC-030031, absent in parental cells; format: cell-based

T1 sequence (O75762 whole entry): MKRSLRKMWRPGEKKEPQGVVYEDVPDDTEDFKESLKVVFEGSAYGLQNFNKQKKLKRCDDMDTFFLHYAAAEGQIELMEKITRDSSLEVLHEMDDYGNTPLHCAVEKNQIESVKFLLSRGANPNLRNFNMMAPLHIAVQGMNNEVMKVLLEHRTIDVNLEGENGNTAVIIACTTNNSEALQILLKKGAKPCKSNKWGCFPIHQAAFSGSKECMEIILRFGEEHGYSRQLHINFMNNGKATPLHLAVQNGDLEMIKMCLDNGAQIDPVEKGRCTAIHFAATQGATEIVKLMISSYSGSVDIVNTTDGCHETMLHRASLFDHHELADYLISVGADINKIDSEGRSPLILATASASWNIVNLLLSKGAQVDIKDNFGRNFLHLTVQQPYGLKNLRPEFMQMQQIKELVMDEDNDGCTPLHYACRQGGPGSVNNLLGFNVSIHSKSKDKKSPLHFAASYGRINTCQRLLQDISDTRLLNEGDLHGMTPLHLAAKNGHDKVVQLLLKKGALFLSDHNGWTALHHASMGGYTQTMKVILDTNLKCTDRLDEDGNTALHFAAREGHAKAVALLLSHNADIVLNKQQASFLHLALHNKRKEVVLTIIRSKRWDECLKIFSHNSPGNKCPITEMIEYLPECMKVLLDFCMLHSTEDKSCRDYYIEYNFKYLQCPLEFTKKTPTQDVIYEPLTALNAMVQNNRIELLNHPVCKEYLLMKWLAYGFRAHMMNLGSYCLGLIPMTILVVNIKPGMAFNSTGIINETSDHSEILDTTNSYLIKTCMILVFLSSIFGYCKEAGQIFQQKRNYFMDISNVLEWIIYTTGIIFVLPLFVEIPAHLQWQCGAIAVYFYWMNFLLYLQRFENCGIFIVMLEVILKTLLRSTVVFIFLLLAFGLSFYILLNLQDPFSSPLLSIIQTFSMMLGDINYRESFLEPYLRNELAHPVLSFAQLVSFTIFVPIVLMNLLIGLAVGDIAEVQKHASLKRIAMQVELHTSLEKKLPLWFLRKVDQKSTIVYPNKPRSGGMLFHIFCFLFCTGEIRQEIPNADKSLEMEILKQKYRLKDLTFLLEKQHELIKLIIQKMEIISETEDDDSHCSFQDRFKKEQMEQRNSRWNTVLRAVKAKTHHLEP

EC50 [1] [µM]	EC50 [2] [µM]	SMILES
15.5	–	CC(C)=CCc1cc(/C=C/C(=O)O)ccc1OC(=O)CCc1ccccc1 [baccharin, (E)-3-prenyl-4-(2,3-dihydrocinnamoyloxy) cinnamic acid]
–	1.8	CC(C)=CCc1cc(/C=C/C(=O)O)cc(CC=C(C)C)c1O [artepillin C, 3,5-diprenyl-4-hydroxycinnamic acid]

Source: PMC3487895, “Artepillin C, a Major Ingredient of Brazilian Propolis, Induces a Pungent Taste by Activating TRPA1 Channels” (PLoS ONE, 2012)
